The nature of one data set: Nephelometric solubility. Format: physicochemical. Particulars: aqueous buffer, kinetic from dmso stock; PBS buffer, nephelometry. The method, then: In addition to the degradation and determination of the effects on AML cancer cells, we also determined some physicochemical parameters to assess whether the compounds are suitable for further in vivo studies. Nephelometric measurements were performed to determine the water solubility of some compounds. […] The nephelometric technique has been previously described as a high-throughput method for the solubility determination of compounds in the solvent of interest. This technique measures the intensity of scattered light when visible light passes through a suspension of the tested compound. Relative turbidity is an indication of the insolubility of compounds.
First, equidistant and logarithmic pre-dilutions were prepared in a 96-well plate with round bottoms, using 25 mM stock solutions of compounds MA68 and MA191 in DMSO. Then, 5 μL of each pre-dilution was added to 245 μL of PBS buffer in a 96-well plate with straight bottoms. Quadruplets were prepared for the blank (DMSO + PBS), and final concentrations (one plate per compound) were tested. The final concentrations measured started from 500 μM to 0.78125 μM. A NEPHELOstarplus (BMG LABTECH GmbH, Ortenberg, Germany) was used to measure the solubility, and omega-data analysis software (version 3.42 R5) was used to analyze the results.

A further data set addresses T1, CAMK1G (Homo sapiens, UniProt Q96NX5).
T1 construct: Full-length kinase ORF (Promega, Madison, WI, USA) cloned in frame with a NanoLuc-vector was transfected into HEK293T cells; host or cells: HEK293T
Nature of the data set: NanoBRET CELLinib128. Format: binding. Particulars: 100% no effect, 0% complete tracer displacement, read-out: Tracer bound.

For a further data set, the target named is T2, FRK (Homo sapiens, UniProt P42685).
T2 construct: Full-length kinase ORF (Promega, Madison, WI, USA) cloned in frame with a NanoLuc-vector was transfected into HEK293T cells; host or cells: HEK293T
T2 sequence (P42685 whole entry): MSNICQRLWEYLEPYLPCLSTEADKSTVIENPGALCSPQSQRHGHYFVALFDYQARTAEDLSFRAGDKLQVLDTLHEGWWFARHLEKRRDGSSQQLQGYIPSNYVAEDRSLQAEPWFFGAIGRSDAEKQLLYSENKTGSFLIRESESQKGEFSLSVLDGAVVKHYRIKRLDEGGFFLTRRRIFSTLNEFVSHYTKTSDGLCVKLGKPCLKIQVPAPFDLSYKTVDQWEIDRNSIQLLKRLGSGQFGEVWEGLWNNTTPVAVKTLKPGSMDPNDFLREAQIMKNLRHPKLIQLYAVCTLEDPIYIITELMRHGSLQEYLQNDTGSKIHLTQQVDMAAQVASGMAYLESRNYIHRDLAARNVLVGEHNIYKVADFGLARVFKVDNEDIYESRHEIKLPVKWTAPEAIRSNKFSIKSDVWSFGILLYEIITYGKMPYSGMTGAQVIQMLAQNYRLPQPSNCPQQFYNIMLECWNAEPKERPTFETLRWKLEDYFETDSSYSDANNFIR
Nature of the data set: NanoBRET CELLinib128. It counts as binding. Particulars: 100% no effect, 0% complete tracer displacement, read-out: Tracer bound. On the technique in general: In BRET a luciferase serves as donor, and the signal depends on an acceptor being close.

A further data set deals with T3, FYN (Homo sapiens, UniProt P06241).
T3 construct: Full-length kinase ORF (Promega, Madison, WI, USA) cloned in frame with a NanoLuc-vector was transfected into HEK293T cells; host or cells: HEK293T
Nature of the data set: NanoBRET CELLinib128. Format: binding. Particulars: 100% no effect, 0% complete tracer displacement, read-out: Tracer bound.

For a further data set, the target named is T4, HCK (Homo sapiens, UniProt P08631).
T4 construct: Full-length kinase ORF (Promega, Madison, WI, USA) cloned in frame with a NanoLuc-vector was transfected into HEK293T cells; host or cells: HEK293T
Nature of the data set: NanoBRET CELLinib128. It counts as binding. Particulars: 100% no effect, 0% complete tracer displacement, read-out: Tracer bound.

Another data set deals with T5, PTK6 (Homo sapiens, UniProt Q13882).
T5 construct: Full-length kinase ORF (Promega, Madison, WI, USA) cloned in frame with a NanoLuc-vector was transfected into HEK293T cells; host or cells: HEK293T
In words: NanoBRET CELLinib128. Format: binding. Particulars: 100% no effect, 0% complete tracer displacement, read-out: Tracer bound.

A further data set concerns the target T6, STK17B (Homo sapiens, UniProt O94768).
T6 construct: Full-length kinase ORF (Promega, Madison, WI, USA) cloned in frame with a NanoLuc-vector was transfected into HEK293T cells; host or cells: HEK293T
Nature of the data set: NanoBRET CELLinib128. Format: binding. Particulars: 100% no effect, 0% complete tracer displacement, read-out: Tracer bound.

Another data set addresses CSF1R (Homo sapiens, UniProt P07333). In words: NanoBRET CELLinib128. Particulars: read-out: Tracer bound.
In a further data set the target is CSNK1D (Homo sapiens, UniProt P48730). Nature of the data set: NanoBRET CELLinib128. Particulars: read-out: Tracer bound.
The target in the next data set is EPHA1 (Homo sapiens, UniProt P21709). In words: NanoBRET CELLinib128. Particulars: read-out: Tracer bound.
EPHA1, sequence (P21709 26-976): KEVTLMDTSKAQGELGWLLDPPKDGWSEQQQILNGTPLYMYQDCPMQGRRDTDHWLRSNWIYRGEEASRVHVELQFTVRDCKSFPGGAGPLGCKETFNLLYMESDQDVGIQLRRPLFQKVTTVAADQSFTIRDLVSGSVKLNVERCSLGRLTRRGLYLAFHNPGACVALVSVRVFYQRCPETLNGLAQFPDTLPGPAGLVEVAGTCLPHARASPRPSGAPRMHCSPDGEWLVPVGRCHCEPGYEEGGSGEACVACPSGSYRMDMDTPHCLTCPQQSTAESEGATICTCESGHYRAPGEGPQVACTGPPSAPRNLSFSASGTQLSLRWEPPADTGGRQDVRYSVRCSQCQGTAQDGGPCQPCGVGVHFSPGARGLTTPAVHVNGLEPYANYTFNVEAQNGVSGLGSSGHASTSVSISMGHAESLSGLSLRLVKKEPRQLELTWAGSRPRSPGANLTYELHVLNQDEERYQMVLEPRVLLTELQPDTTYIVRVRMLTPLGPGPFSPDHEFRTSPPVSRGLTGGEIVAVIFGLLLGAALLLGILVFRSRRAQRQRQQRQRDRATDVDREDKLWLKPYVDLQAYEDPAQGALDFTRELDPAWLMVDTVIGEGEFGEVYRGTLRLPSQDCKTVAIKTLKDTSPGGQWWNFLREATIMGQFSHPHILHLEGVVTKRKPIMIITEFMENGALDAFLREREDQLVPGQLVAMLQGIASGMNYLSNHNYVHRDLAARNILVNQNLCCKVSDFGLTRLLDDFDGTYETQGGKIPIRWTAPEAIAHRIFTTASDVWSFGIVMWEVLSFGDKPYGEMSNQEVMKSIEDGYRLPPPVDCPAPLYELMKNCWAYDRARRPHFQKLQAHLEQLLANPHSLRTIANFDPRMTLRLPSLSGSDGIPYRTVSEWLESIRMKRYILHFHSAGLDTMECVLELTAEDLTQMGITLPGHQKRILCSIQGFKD
The next data set concerns the target EPHA8 (Homo sapiens, UniProt P29322). Nature of the data set: NanoBRET CELLinib128. Particulars: read-out: Tracer bound.
In a further data set the target is EPHB4 (Homo sapiens, UniProt P54760). In words: NanoBRET CELLinib128. Particulars: read-out: Tracer bound.
A further data set addresses EPHB6 (Homo sapiens, UniProt O15197). Nature of the data set: NanoBRET CELLinib128. Particulars: read-out: Tracer bound.
The next data set deals with IGF1R (Homo sapiens, UniProt P08069). Nature of the data set: NanoBRET CELLinib128. Particulars: read-out: Tracer bound.
In another data set the target is IRAK1 (Homo sapiens, UniProt P51617). Nature of the data set: NanoBRET CELLinib128. Particulars: read-out: Tracer bound.
The target in the next data set is LTK (Homo sapiens, UniProt P29376). In words: NanoBRET CELLinib128. Particulars: read-out: Tracer bound.
LTK, sequence (P29376 17-864): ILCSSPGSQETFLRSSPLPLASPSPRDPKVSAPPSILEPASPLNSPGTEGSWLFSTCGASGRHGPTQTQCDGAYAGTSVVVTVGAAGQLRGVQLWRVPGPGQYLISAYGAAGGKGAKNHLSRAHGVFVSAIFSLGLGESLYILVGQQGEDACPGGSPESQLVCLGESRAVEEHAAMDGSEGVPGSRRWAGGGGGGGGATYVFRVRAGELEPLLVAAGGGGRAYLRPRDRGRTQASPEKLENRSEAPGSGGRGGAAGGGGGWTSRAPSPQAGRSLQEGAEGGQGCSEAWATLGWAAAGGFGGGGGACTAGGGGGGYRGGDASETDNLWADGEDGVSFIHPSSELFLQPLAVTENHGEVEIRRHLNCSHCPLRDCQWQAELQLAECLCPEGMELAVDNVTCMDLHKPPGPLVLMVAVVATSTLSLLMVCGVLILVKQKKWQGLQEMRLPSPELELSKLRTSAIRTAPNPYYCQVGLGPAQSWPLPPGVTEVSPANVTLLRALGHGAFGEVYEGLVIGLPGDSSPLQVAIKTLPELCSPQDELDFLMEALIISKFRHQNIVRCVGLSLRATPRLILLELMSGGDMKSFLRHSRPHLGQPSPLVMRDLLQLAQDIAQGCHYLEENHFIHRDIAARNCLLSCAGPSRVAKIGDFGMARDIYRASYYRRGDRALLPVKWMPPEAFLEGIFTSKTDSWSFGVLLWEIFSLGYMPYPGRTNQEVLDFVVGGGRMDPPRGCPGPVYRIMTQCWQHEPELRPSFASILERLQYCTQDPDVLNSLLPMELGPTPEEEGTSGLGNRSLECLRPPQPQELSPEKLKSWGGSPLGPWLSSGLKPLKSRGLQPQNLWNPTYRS
A further data set has as its target MAPK11 (Homo sapiens, UniProt Q15759). In words: NanoBRET CELLinib128. Particulars: read-out: Tracer bound.
Another data set concerns the target PLK2 (Homo sapiens, UniProt Q9NYY3). Nature of the data set: NanoBRET CELLinib128. Particulars: 1 µM; 100% no effect, 0% complete tracer displacement.
Another data set addresses RIPK1 (Homo sapiens, UniProt Q13546). In words: NanoBRET CELLinib128. Particulars: read-out: Tracer bound.
The target of a further data set is SRC (Homo sapiens, UniProt P12931). Nature of the data set: NanoBRET CELLinib128. Particulars: read-out: Tracer bound.
The next data set has as its target STK32B (Homo sapiens, UniProt Q9NY57). In words: NanoBRET CELLinib128. Particulars: read-out: Tracer bound.
A further data set concerns the target TEC (Homo sapiens, UniProt P42680). In words: NanoBRET CELLinib128. Particulars: read-out: Tracer bound.
Data set [1] relates to 128 representative protein kinases. Nature of the data set: NanoBRET CELLinib128 kinase selectivity panel, summary. Particulars: 1 μM.
The next data set deals with MV4-11 cells. Nature of the data set: Apoptosis by flow cytometry (annexin-V/propidium iodine). Format: cell-based, human. Particulars: 24 h. The method, then: To further assess the biological relevance of these findings, we treated MV4-11 cells with the new PROTACs, included MA49 as control, and analyzed them for early (annexin-V positive) and late apoptosis (annexin-V and propidium iodine positive) by flow cytometry. Cells in late apoptosis are more severely damaged than cells in early apoptosis. […] After 72 h, all degraders evoked equal levels of apoptosis (Figure 4c). We additionally tested these degraders in MOLM-13 cells which carry FLT3-ITD and FLT3 from a patient with AML after initial myelodysplastic syndrome. These were hardly affected by the degraders after 24 h (Figure 4d).
Figure 4 Biological and biochemical characterization of the FLT3 PROTACs. (a) MV4-11 cells were incubated for 24 h with 50 nM of the indicated compounds. Immunoblotting was performed for the indicated proteins and their phosphorylation (p-) or cleavage (cl.; indicated by arrows); β-actin was used to ensure equal sample loading. (b) MV4-11 cells were treated with the indicated agents and analyzed for early and late apoptosis by flow cytometry. (c) Same as in (b) but treatment for 72 h. (d) MOLM-13 cells were treated with the indicated agents and analyzed for early and late apoptosis by flow cytometry. […] Immunoblots show the expression of the indicated proteins and their phosphorylation (p-); β-actin was used to ensure equal sample loading. […]
Background: In flow cytometry, cells or beads pass a laser one at a time.

By solubility is commonly meant the dissolved amount per volume that the medium holds. A higher solubility goes with much dissolved substance.

Molecules are shown by their SMILES. ≈ marks a conversion by molar mass, not a printed value.

T1 sequence (Q96NX5 whole entry): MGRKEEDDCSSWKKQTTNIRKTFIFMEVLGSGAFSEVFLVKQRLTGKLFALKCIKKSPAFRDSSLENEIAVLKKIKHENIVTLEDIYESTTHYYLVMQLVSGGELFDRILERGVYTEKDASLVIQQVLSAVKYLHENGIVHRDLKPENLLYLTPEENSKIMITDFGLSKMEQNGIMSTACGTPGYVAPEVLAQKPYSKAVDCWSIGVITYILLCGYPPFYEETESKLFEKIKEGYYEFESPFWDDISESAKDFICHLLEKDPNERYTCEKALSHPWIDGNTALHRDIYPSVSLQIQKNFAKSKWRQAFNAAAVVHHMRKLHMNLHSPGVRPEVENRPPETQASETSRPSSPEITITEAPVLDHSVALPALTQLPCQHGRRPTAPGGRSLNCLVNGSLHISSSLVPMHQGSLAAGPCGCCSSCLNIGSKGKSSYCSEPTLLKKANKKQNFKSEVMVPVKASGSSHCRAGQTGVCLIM
EPHB6, sequence (O15197 32-1021): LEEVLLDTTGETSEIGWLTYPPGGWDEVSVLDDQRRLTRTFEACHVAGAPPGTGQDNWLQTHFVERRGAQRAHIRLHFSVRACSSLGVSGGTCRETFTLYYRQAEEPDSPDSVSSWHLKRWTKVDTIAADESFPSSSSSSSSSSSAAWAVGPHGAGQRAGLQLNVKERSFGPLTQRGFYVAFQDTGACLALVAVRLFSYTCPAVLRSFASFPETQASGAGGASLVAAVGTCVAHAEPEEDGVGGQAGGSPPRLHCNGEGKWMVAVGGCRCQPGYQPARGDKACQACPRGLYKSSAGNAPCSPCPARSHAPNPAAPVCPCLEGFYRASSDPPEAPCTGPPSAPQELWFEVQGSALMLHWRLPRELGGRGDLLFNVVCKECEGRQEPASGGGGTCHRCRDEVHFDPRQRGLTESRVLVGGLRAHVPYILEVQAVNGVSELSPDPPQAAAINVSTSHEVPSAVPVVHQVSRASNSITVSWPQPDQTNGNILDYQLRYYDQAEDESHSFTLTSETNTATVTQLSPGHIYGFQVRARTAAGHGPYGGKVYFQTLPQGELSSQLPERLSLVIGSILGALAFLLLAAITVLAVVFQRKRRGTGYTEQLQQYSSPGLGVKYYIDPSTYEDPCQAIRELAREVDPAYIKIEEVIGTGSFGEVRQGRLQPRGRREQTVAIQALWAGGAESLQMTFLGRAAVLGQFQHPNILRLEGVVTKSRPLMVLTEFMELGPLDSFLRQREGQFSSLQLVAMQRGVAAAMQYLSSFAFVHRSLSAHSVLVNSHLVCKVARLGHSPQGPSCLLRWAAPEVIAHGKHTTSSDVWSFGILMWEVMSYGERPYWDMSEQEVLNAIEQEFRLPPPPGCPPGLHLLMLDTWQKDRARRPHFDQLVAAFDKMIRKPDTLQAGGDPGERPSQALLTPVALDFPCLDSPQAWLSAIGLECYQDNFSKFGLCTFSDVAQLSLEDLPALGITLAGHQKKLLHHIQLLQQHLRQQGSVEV
CSF1R, sequence (P07333 20-972): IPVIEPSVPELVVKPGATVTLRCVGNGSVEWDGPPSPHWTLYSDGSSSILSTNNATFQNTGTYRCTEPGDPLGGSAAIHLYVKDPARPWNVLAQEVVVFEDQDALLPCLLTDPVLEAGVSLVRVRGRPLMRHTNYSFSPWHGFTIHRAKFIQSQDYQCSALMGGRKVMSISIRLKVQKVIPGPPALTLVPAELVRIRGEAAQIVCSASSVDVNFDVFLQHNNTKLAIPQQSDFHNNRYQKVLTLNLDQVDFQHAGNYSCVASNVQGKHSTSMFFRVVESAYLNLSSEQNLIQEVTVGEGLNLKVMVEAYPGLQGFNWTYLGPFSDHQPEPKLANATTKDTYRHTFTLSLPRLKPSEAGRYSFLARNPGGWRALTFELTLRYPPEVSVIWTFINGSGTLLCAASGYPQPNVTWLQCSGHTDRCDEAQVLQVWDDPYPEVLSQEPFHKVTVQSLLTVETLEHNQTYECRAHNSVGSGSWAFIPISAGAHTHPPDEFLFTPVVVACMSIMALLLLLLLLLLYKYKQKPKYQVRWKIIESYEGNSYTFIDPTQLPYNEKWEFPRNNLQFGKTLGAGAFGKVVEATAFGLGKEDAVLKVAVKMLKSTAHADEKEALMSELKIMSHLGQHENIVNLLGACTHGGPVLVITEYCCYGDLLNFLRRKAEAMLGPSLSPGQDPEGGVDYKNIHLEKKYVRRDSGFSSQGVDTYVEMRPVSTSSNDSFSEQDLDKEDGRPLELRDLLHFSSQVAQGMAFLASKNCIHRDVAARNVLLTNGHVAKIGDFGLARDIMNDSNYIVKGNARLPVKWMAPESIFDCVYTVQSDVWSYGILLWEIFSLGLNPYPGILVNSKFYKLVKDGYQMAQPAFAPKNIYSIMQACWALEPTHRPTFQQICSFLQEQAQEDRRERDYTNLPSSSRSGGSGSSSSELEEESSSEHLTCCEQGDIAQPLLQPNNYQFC

For the compound `CNC(=O)c1cc(Oc2ccc(NC(=O)Nc3cc(C(C)(C)C)on3)cc2)ccn1` [MA68, reference compound], the solubility in “Nephelometric solubility” was 45.8 µM (≈ 18.8 µg/mL). Further, the remaining activity at 1 µM at CAMK1G amounted to 101%; at FRK it was 68.2%; at FYN it was 114%; on HCK it was 120%; at PTK6, 67.6%; at STK17B it was 102%. Besides, the remaining activity at 1 µM at CSF1R came to 27.1%; on CSNK1D it was 104%; at EPHA1, 37.2%; at EPHA8, 38.9%; at EPHB4 it was 3.8%; at EPHB6 it was 99.5%. Further, the remaining activity at 1 µM at IGF1R is 111%; at IRAK1 it was 108%; on LTK, 102%; at MAPK11 it was 24%; on RIPK1, 93.3%; on SRC it was 120%. Also, the remaining activity at 1 µM at STK32B was found to be 104%; at TEC it was 107%. Besides, the Tracer bound at PLK2 is 98.1%. Also, the “Target Count < 50 % tracer bound (kinases with >50% tracer displacement)” value in data set [1] (of 128 kinases) is reported as 25.

For the compound `Cc1ncsc1-c1ccc([C@H](C)NC(=O)[C@@H]2C[C@@H](O)CN2C(=O)[C@@H](NC(=O)[C@H]2CC[C@H](C(=O)N3CCC(CCNC(=O)c4cc(Oc5ccc(NC(=O)Nc6cc(C(C)(C)C)on6)cc5)ccn4)CC3)CC2)C(C)(C)C)cc1` [MA190, 4-(4-(3-(5-(tert-Butyl)isoxazol-3-yl)ureido)phenoxy)-N-(2-(1-(trans-4-(((S)-1-((2S,4R)-4-hydroxy-2-(((S)-1-(4-(4-methylthiazol-5-yl)phenyl)ethyl)carbamoyl)pyrrolidin-1-yl)-3,3-dimethyl-1-oxobutan-2-yl)carbamoyl)cyclohexanecarbonyl)piperidin-4-yl)ethyl)picolinamide], in the data set with MV4-11 cells, the “induction of late apoptosis” value was “most effective in inducing late apoptosis”.

Turning to `Cc1ncsc1-c1ccc([C@H](C)NC(=O)[C@@H]2C[C@@H](O)CN2C(=O)[C@@H](NC(=O)[C@H]2CC[C@H](C(=O)N3CCN(CCNC(=O)c4cc(Oc5ccc(NC(=O)Nc6cc(C(C)(C)C)on6)cc5)ccn4)CC3)CC2)C(C)(C)C)cc1` [MA191, 4-(4-(3-(5-(tert-Butyl)isoxazol-3-yl)ureido)phenoxy)-N-(2-(4-(trans-4-(((S)-1-((2S,4R)-4-hydroxy-2-(((S)-1-(4-(4-methylthiazol-5-yl)phenyl)ethyl)carbamoyl)pyrrolidin-1-yl)-3,3-dimethyl-1-oxobutan-2-yl)carbamoyl)cyclohexanecarbonyl)piperazin-1-yl)ethyl)picolinamide], the concentration in solution in the data set “Nephelometric solubility” (solubility) came to 47.7 µM (≈ 51.9 µg/mL). Besides, the “induction of late apoptosis” value with MV4-11 cells was “most effective in inducing late apoptosis”. The remaining activity at 1 µM on CAMK1G was found to be 91.6%; on FRK, 117%; on FYN, 120%; on HCK, 120%; on PTK6, 118%; at STK17B, 92.4%. Besides, the remaining activity at 1 µM was 108% on CSF1R; 120% at CSNK1D; 120% on EPHA1; 120% on EPHA8; 120% at EPHB4; 120% on EPHB6. The remaining activity at 1 µM was 107% on IGF1R; 102% on IRAK1; 101% at LTK; 96.2% on MAPK11; 104% on RIPK1; 120% at SRC. Moreover, the remaining activity at 1 µM on STK32B came to 92.5%; at TEC, 113%. Moreover, the Tracer bound on PLK2 was found to be 107.6%. Besides, the “kinases with no detectable binding (<10%)” value in [1] (share of the 128 kinases) is listed as 93.7%.

The values above are taken from PMC13210772, “Dual FLT3/MAPK14 Proteolysis-Targeting Chimera (PROTAC) Induces Potent Acute Myeloid Leukemia Cell Death” (Pharmaceuticals, 2026).
